According to article PMC10287695, “Non-covalent inhibitors of thioredoxin glutathione reductase with schistosomicidal activity in vivo” (Nature Communications, 2023):
Where “and” joins values, the source holds several entries; their conditions need not be identical. Equal entries are not always repeated. Entries after “also recorded” stand apart in the source; their conditions may differ. Where two headings read alike, the source gives them in different places.

What was measured:
[1] = Stability of compound under biochemical assay conditions with recombinant TGR (LC-MS); format: physicochemical; settings: with or without NADPH
Procedure: TGR assay solutions (1 ml each) were prepared as described in the main manuscript. […] Each of the reaction mixtures were terminated by the addition of 250 µl of ethyl acetate, extracted with 1 ml of methyl tert-butyl ether. The organic layer was evaporated in vacuo, and the residue was redissolved in 0.5 mL of 50% MeOH before injection onto LC column. LC-MS analysis was done on a Waters SYNAPT quadrupole/time-of-flight mass spectrometer operated in positive ion electrospray mode. The column was Waters XBridge C8 column and gradient was from 20-90% MeCN/0.1% formic acid over 12 min.

[2] = Pharmacokinetics, oral gavage; settings: for plasma concentration, individual animals (Animal 1, Animal 2) / plasma concentration: listed as 1 (8VP101); for plasma concentration, individual animals (Animal 1, Animal 2) / concentration at 30 min / concentration at 60 min / concentration at 120 min / concentration at 0.5 h / concentration at 1 h / concentration at 2 h / plasma concentration: 200 mg/kg; for concentration at 30 min / concentration at 60 min / concentration at 120 min / concentration at 0.5 h / concentration at 1 h / concentration at 2 h: female, Swiss Webster, mouse, plasma, po
Procedure: Tween 80 and saline were then added to the DMSO solution in that order. Final solution was 10% DMSO:10% Tween 80:80% saline.
Swiss Webster female mice were purchased from Charles River Laboratories (Wilmington, MA, USA). […] All the mice were weighed and gavaged orally at 200 mg/kg body weight with freshly prepared 2. Blood was collected by submandibular puncture at 0, 0.25, 0.5, 1, and 2 h.
Samples were deproteinized with 150 µl of internal standard solution. This mixture was vortexed to mix properly and centrifuged at 13000 × g for 30 min. 160 µl of the supernatant was transferred to another set of tubes and dried using a nitrogen evaporator. Samples were reconstituted in 100 µl of methanol, vortexed and centrifuged at 13000 × g for 20 min. 30 µl of supernatant was transferred to autosampler vials.
Experiments were carried out on ThermoFisher Scientific Vanquish high-performance liquid chromatography connected to ThermoFisher Scientific TSQ Quantis – triple quadrupole mass spectrometer. The analyte molecules were separated on Phenomenex kinetex C18 column 100 Å (2.6 μm, 50 × 3 mm) with the mobile phase composed of Water/0.1% formic acid (A) and Acetonitrile (B) at the flow rate of 0.5 ml/min with the column temperature maintained at 40 °C and the sample of injection was 5 µl.
Quantification was performed using electrospray in the positive mode with the spray voltage of 3500 V. Sheath gas (Arb) 20, Auxiliary gas (Arb) 8 and Sweep gas (Arb) 5.7.

TGR = target: T1, TGR (Schistosoma mansoni, UniProt Q962Y6); format: biochemical, S. mansoni; settings: 6 hr preincubation
T1 construct: made in house
T1 sequence (Q962Y6 1-598): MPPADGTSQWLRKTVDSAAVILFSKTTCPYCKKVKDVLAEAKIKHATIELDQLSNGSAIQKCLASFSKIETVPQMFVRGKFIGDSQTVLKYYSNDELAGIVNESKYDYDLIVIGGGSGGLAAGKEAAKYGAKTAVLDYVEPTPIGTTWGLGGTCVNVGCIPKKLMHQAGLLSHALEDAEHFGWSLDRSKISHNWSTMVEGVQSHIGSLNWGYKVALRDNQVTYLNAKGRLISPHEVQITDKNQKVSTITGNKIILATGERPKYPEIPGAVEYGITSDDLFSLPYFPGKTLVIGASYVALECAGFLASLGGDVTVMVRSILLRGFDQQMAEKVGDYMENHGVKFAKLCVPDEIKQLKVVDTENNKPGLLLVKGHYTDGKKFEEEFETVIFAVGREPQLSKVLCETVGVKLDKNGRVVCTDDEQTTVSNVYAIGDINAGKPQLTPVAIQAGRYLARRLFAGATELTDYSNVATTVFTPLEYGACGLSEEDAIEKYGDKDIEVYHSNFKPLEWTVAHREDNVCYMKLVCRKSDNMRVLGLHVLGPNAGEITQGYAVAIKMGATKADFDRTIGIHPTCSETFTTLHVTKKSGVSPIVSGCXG

juvenile worms in mice = settings: cited from earlier work
[3] = human, in vivo; cited from earlier work
S. mansoni NTS = test: Phenotypic assessment of PZQ activity on NTS; format: cell-based; settings: for % Effect, single replicates I, II, III / % Effect / NTS phenotypic score, Mean / IC50: 24 hour exposure; for % Effect: from mean score, 100 - Average (Test) x 100 / Average (Control); for NTS phenotypic score, Mean: score 3 (motile) to 0 (dead); for IC50: NTS phenotypic scoring
Procedure: About 200 NTS incubated at 37 °C in a 5% CO2 incubator overnight were exposed to different concentrations of PZQ (1, 5, 10, 20, 30, 40 and 50 µM) and control without treatment for 24 h in triplicate. Worm images were acquired using Keyence BZ-X800 microscope and PZQ activity evaluated phenotypically. NTS viability was assessed by scoring worms based on morphological changes and motility. Viability scores of 3 = motile, no changes to morphology and transparency, 2 = reduced motility and/or some damage to tegument as well as reduced transparency and increased granularity, 1 = severe reduction of motility and/or damage to tegument with high opacity and high granularity, and 0 = dead.

[4] = test system: S. mansoni juvenile worms; design: method as in PMID 15013742; settings: cited from earlier work

With CCc1ccccc1-c1nc(CN[C@@H]2C[C@@H]3C[C@H]([C@H]2C)C3(C)C)c(C)o1 [Compound 2] as the compound, how does the “formation of derivatives under biochemical assay conditions” value [1] read?
Its value is “No additional ions except for those corresponding to 2 were detected; also recorded: no formation of derivatives”.

And the “plasma concentration, individual animals (Animal 1, Animal 2)” value (shortened to “plasma concentration, individual animals”) ([2]; PO 200 mg/kg, 0.5 Hour)?
Its value is 0.255 ug/mL and 0.704 uM.

What about the “plasma concentration, individual animals” value ([2]; PO 200 mg/kg, 1 Hour) of the same compound?
Its value is 0.273 ug/mL and 0.767 uM.

And the “plasma concentration, individual animals” value ([2]; PO 200 mg/kg, 2 Hour)?
Its value is 0.135 ug/mL and 0.409 uM.

What about the concentration at 30 min ([2]; Plasma concentration, mice, oral gavage, 30 min) of the same compound?
The concentration at 30 min was 714 nM and 252 ng/mL.

And the concentration at 60 min ([2]; Plasma concentration, mice, oral gavage, 60 min)?
The concentration at 60 min was 771 nM and 272 ng/mL.

What about the concentration at 120 min ([2]; Plasma concentration, mice, oral gavage, 120 min) of the same compound?
The concentration at 120 min was 396 nM and 140 ng/mL.

What about the concentration at 0.5 h ([2]; plasma concentration, Average, PO 200 mg/kg, 0.5 Hour) of the same compound?
The concentration at 0.5 h was 252 ng/mL.

What about the concentration at 1 h ([2]; plasma concentration, Average, PO 200 mg/kg, 1 Hour) of the same compound?
Its concentration at 1 h is 272 ng/mL.

And the concentration at 2 h ([2]; plasma concentration, Average, PO 200 mg/kg, 2 Hour)?
Its concentration at 2 h is 140 ng/mL.

And the concentration at 0.5 h ([2]; plasma concentration, individual animals (Animal 1, Animal 2), PO 200 mg/kg, 0.5 Hour)?
The concentration at 0.5 h was 724 nM and 248 ng/mL.

And the concentration at 1 h ([2]; plasma concentration, individual animals (Animal 1, Animal 2), PO 200 mg/kg, 1 Hour)?
The concentration at 1 h was 774 nM and 270 ng/mL.

What about the concentration at 2 h ([2]; plasma concentration, individual animals (Animal 1, Animal 2), PO 200 mg/kg, 2 Hour) of the same compound?
Its concentration at 2 h is 383 nM and 144 ng/mL.

What about the concentration at 30 min ([2]; plasma concentration, mice, 200 mg/kg p.o., 30 min) of the same compound?
The concentration at 30 min was 710 nM.

And the concentration at 60 min ([2]; plasma concentration, mice, 200 mg/kg p.o., 60 min)?
Its concentration at 60 min is 770 nM.

And the concentration at 120 min ([2]; plasma concentration, mice, 200 mg/kg p.o., 120 min)?
Its concentration at 120 min is 400 nM.

What about the plasma concentration ([2]; mice, 200 mg/kg p.o., 30 min) of the same compound?
The plasma concentration was 714 nM.

What about the plasma concentration ([2]; mice, 200 mg/kg p.o., 60 min) of the same compound?
Its plasma concentration is 771 nM.

What about the plasma concentration ([2]; mice, 200 mg/kg p.o., 120 min) of the same compound?
Its plasma concentration is 396 nM.

And the maximum plasma concentration ([2]; mice, PO 200 mg/kg)?
Its maximum plasma concentration is 0.77 µM.

For Cc1oc(-c2ccccc2)nc1CN[C@@H]1C[C@@H]2C[C@H]([C@H]1C)C2(C)C [Compound 3], which Vmax (TGR; 35 µM inhibitor) is on record?
The Vmax was 0.011 ± 0.0002 ΔA412/min.

What about the Vmax (TGR; 50 µM inhibitor) of the same compound?
The Vmax was 0.0096 ± 0.0002 ΔA412/min.

Which “reduction in worm burden” value (juvenile worms in mice; mice, 500 mg/kg, 21 d.p.i.) does the source give for O=C(C1CCCCC1)N1CC(=O)N2CCc3ccccc3C2C1 (stereo not drawn) [PZQ, praziquantel] here?
Its value is 0%.

And the “reduction in worm burden” value (juvenile worms in mice; mice, 500 mg/kg, 28 d.p.i.)?
Its value is 0%.

What about the “reduction in worm burden” value (juvenile worms in mice; mice, 1,000 mg/kg, 21 d.p.i.) of the same compound?
Its value is 50%.

And the “reduction in worm burden” value (juvenile worms in mice; mice, 1,000 mg/kg, 28 d.p.i.)?
Its value is 17%.

And the ED50 (juvenile worms in mice; mice, doses titrated 28 d.p.i.)?
Its ED50 is 2,456 mg/kg.

And the half-life [3]?
Its half-life is 1.6 h.

What about the “% Effect, single replicates I, II, III” value (S. mansoni NTS; 10 µM) of the same compound?
The value was 9.401% and 12.151% and 16.3217%.

What about the “% Effect” value (S. mansoni NTS; 10 µM) of the same compound?
Its value is 12.6338%.

And the “NTS phenotypic score, Mean” value (S. mansoni NTS; 10 µM, mean of 3 replicates)?
Its value is 2.613.

And the “% Effect, single replicates I, II, III” value (S. mansoni NTS; 20 µM)?
The value was 15.8245% and 13.8003% and 19.4239%.

And the “% Effect” value (S. mansoni NTS; 20 µM)?
Its value is 16.3511%.

And the “NTS phenotypic score, Mean” value (S. mansoni NTS; 20 µM, mean of 3 replicates)?
The value was 2.502.

What about the “% Effect, single replicates I, II, III” value (S. mansoni NTS; 30 µM) of the same compound?
Its value is 25.0655% and 24.6184% and 29.7619%.

And the “% Effect” value (S. mansoni NTS; 30 µM)?
The value was 26.486%.

What about the “NTS phenotypic score, Mean” value (S. mansoni NTS; 30 µM, mean of 3 replicates) of the same compound?
Its value is 2.199.

What about the “% Effect, single replicates I, II, III” value (S. mansoni NTS; 40 µM) of the same compound?
Its value is 41.1572% and 48.5123% and 41.922%.

And the “% Effect” value (S. mansoni NTS; 40 µM)?
Its value is 43.8717%.

What about the “NTS phenotypic score, Mean” value (S. mansoni NTS; 40 µM, mean of 3 replicates) of the same compound?
Its value is 1.679.

And the “% Effect, single replicates I, II, III” value (S. mansoni NTS; 50 µM)?
The value was 60.2247% and 58.8296% and 61.8051%.

And the “% Effect” value (S. mansoni NTS; 50 µM)?
Its value is 60.2866%.

And the “NTS phenotypic score, Mean” value (S. mansoni NTS; 50 µM, mean of 3 replicates)?
Its value is 1.188.

And the “LD50 for NTS, phenotypic analysis” value (S. mansoni NTS; 24 h exposure)?
Its value is 42.9 ± 0.83 µM.

What about the IC50 (S. mansoni NTS; FORECAST interpolation, read-out: IC50, single replicates I, II, III) of the same compound?
The IC50 was 42.6 µM and 42.3 µM.

What about the IC50 (S. mansoni NTS; Schistosoma mansoni, 24 h, FORECAST interpolation, read-out: IC50, single replicates I, II, III) of the same compound?
The IC50 was 43.9 µM.

And the IC50 (S. mansoni NTS; Schistosoma mansoni, 24 h, mean of 3 replicates, read-out: IC50, Mean)?
Its IC50 is 42.9 µM.

What about the “LD50 of PZQ against ex vivo S. mansoni juvenile worms” value [4] of the same compound?
The value was 413 µM.
